Assay results published in US10717716B2, “1,3,4-oxadiazole derivative compounds as histone deacetylase 6 inhibitor, and the pharmaceutical composition comprising the same” (Chong Kun Dang Pharmaceutical Corp., priority 2015, dated 2020).
pIC50: −log10 of the molar value.

Target: T1, human recombinant HDAC6 (Homo sapiens, UniProt Q9UBN7)
T1 construct: purchased Calbiochem 382180
T1 sequence (Q9UBN7 1-1215): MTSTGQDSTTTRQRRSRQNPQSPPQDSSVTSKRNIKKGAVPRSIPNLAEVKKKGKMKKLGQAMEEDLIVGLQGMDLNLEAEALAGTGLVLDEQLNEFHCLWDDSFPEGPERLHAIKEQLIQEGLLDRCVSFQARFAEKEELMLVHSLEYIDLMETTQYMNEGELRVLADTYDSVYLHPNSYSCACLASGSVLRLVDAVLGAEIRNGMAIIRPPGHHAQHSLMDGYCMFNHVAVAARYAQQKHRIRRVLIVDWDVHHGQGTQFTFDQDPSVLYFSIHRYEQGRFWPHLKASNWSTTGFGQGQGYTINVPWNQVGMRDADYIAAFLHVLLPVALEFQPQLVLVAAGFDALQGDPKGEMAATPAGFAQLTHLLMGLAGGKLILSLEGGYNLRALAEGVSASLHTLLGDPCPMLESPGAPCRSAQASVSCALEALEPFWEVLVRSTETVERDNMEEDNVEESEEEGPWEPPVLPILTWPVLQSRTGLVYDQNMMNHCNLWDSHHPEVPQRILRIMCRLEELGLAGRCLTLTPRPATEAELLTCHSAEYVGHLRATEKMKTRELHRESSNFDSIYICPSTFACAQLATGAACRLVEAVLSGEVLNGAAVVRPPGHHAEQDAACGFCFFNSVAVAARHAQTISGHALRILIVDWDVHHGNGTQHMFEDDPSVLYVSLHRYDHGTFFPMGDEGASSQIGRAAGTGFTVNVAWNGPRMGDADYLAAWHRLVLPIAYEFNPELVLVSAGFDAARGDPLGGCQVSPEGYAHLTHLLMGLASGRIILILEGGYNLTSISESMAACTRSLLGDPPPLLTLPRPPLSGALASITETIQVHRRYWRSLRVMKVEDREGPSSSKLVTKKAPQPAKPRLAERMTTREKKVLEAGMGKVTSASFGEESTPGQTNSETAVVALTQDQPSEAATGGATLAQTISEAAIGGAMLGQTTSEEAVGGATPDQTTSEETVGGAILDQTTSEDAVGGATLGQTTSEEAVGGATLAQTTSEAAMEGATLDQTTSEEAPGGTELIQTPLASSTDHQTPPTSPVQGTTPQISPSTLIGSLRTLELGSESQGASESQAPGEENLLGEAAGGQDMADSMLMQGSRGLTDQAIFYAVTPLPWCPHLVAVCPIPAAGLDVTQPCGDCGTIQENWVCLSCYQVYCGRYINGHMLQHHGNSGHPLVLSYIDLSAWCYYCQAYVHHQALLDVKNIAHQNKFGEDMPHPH
Assay: HDAC6 enzyme activity inhibition assay (HDAC Fluorimetric Drug Discovery Kit)
Format: biochemical
Details: for HDAC6 selectivity (fold): HDAC6 over HDAC1; for pIC50: human recombinant HDAC6, same protocol as HDAC1, read-out: HDAC6
Procedure, shortened: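 Fluorimetric deacetylase assay: 5-fold serial compound dilutions, 0.3 μg recombinant human enzyme (HDAC1 or HDAC6, same protocol), 10 μM Fluor de Lys-SIRT1 substrate, 60 min at 30 °C. Signal developed 30 min, measured at 360/460 nm; IC50 values derived.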

HDAC6 selectivity (fold)	pIC50	Compound
323 fold	7.51	CN1CCN(C(=O)N(Cc2ccc(-c3nnc(C(F)F)o3)cc2F)c2cccc(Cl)c2)CC1 [Compound 21467, N-(3-chlorophenyl)-N-(4-(5-(difluoromethyl)-1,3,4-oxadiazol-2-yl)-2-fluorobenzyl)-4-methylpiperazine-1-carboxamide]
494 fold	7.70	O=C(N1CCOCC1)N(Cc1ccc(-c2nnc(C(F)F)o2)cc1)c1ccc(F)c(Cl)c1 [Compound 21593, N-(3-chloro-4-fluorophenyl)-N-(4-(5-(difluoromethyl)-1,3,4-oxadiazol-2-yl)benzyl)morpholine-4-carboxamide]
167 fold	7.22	O=C(N1CCS(=O)(=O)CC1)N(Cc1ccc(-c2nnc(C(F)(F)F)o2)cc1F)c1ccc(F)c(Cl)c1 [Compound 21530, N-(3-chloro-4-fluorophenyl)-N-(2-fluoro-4-(5-(trifluoromethyl)-1,3,4-oxadiazol-2-yl)benzyl)thiomorpholine-4-carboxamide 1,1-dioxide]
14 fold	6.14	CCNC(=O)N(Cc1ccc(-c2nnc(C(F)(F)F)o2)cc1)c1ccccc1 [Compound 21353, 3-Ethyl-1-phenyl-1-(4-(5-(trifluoromethyl)-1,3,4-oxadiazol-2-yl)benzyl)urea]
108 fold	7.03	CC(=O)N1CCN(C(=O)N(Cc2ccc(-c3nnc(C(F)(F)F)o3)cc2)c2ccccc2)CC1 [Compound 21364, 4-Acetyl-N-phenyl-N-(4-(5-(trifluoromethyl)-1,3,4-oxadiazol-2-yl)benzyl)piperazine-1-carboxamide]
30 fold	6.48	CCc1ccc(N(Cc2ccc(-c3nnc(C(F)(F)F)o3)cc2F)C(=O)N2CCS(=O)(=O)CC2)cc1 [Compound 21511, N-(4-ethylphenyl)-N-(2-fluoro-4-(5-(trifluoromethyl)-1,3,4-oxadiazol-2-yl)benzyl)thiomorpholine-4-carboxamide 1,1-dioxide]
116 fold	7.06	O=C(C1CC1)N1CCN(CCNC(=O)N(Cc2ccc(-c3nnc(C(F)F)o3)cc2F)c2ccccc2)CC1 [Compound 22001, 3-(2-(4-(Cyclopropanecarbonyl)piperazin-1-yl)ethyl)-1-(4-(5-(difluoromethyl)-1,3,4-oxadiazol-2-yl)-2-fluorobenzyl)-1-phenylurea]
20 fold	6.30	CCCCN(Cc1ccc(-c2nnc(C(F)(F)F)o2)cc1)C(=O)N1CCOCC1 [Compound 21401, N-butyl-N-(4-(5-(trifluoromethyl)-1,3,4-oxadiazol-2-yl)benzyl)morpholine-4-carboxamide]
58 fold	6.76	CCN1CCN(C(=O)N(Cc2ccc(-c3nnc(C(F)(F)F)o3)cc2)c2ccccc2)CC1 [Compound 21346, 4-Ethyl-N-phenyl-N-(4-(5-(trifluoromethyl)-1,3,4-oxadiazol-2-yl)benzyl)piperazine-1-carboxamide]
880 fold	7.96	CCN1CCN(C(=O)N(Cc2ccc(-c3nnc(C(F)F)o3)cn2)c2ccc(F)c(Cl)c2)CC1 [Compound 21629, N-(3-chloro-4-fluorophenyl)-N-((5-(5-(difluoromethyl)-1,3,4-oxadiazol-2-yl)pyridin-2-yl)methyl)-4-ethylpiperazine-1-carboxamide]
62 fold	6.80	O=C(N1CCS(=O)(=O)CC1)N(Cc1ccc(-c2nnc(C(F)F)o2)cc1F)c1ccc(CN2CCC(F)(F)C2)cc1 [Compound 21915, N-(4-(5-(difluoromethyl)-1,3,4-oxadiazol-2-yl)-2-fluorobenzyl)-N-(4-((3,3-difluoropyrrolidin-1-yl)methyl)phenyl)thiomorpholine-4-carboxamide 1,1-dioxide]
47 fold	6.67	O=C(N1CCS(=O)(=O)CC1)N(Cc1ccc(-c2nnc(C(F)F)o2)cc1F)c1ccc(OC2CCN(Cc3ccccc3)CC2)cc1 [Compound 21924, N-(4-((1-benzylpiperidin-4-yl)oxy)phenyl)-N-(4-(5-(difluoromethyl)-1,3,4-oxadiazol-2-yl)-2-fluorobenzyl)thiomorpholine-4-carboxamide 1,1-dioxide]
213 fold	7.33	C[C@@H]1CN(C(=O)N(Cc2ccc(-c3nnc(C(F)(F)F)o3)cc2)c2ccccc2)C[C@H](C)N1C [Compound 21386, (3R,5S)-3,4,5-Trimethyl-N-phenyl-N-(4-(5-(trifluoromethyl)-1,3,4-oxadiazol-2-yl)benzyl)piperazine-1-carboxamide]
833 fold	7.92	CN(C)[C@H]1CCN(C(=O)N(Cc2ccc(-c3nnc(C(F)F)o3)cc2F)c2ccc(F)c(Cl)c2)C1 [Compound 21583, (S)—N-(3-chloro-4-fluorophenyl)-N-(4-(5-(difluoromethyl)-1,3,4-oxadiazol-2-yl)-2-fluorobenzyl)-3-(dimethylamino)pyrrolidine-1-carboxamide]
52 fold	6.71	O=C(N1CCN(C2COC2)CC1)N(Cc1ccc(-c2nnc(C(F)F)o2)cc1)c1ccc(Cl)cc1 [Compound 21945, N-(4-Chlorophenyl)-N-(4-(5-(difluoromethyl)-1,3,4-oxadiazol-2-yl)benzyl)-4-(oxetan-3-yl)piperazine-1-carboxamide]
246 fold	7.39	O=C(N1CCS(=O)(=O)CC1)N(Cc1ccc(-c2nnc(C(F)F)o2)cc1F)c1ccc(F)cn1 [Compound 21653, N-(4-(5-(difluoromethyl)-1,3,4-oxadiazol-2-yl)-2-fluorobenzyl)-N-(5-fluoropyridin-2-yl)thiomorpholine-4-carboxamide 1,1-dioxide]
526 fold	7.72	CN(C)[C@@H]1CCN(C(=O)N(Cc2ccc(-c3nnc(C(F)F)o3)cn2)c2ccc(F)c(Cl)c2)C1 [Compound 21602, (R)—N-(3-chloro-4-fluorophenyl)-N-((5-(5-(difluoromethyl)-1,3,4-oxadiazol-2-yl)pyridin-2-yl)methyl)-3-(dimethylamino)pyrrolidine-1-carboxamide]
19 fold	6.28	O=C(N1CCCC1)N(Cc1ccc(-c2nnc(C(F)(F)F)o2)cc1)c1ccccc1 [Compound 21350, N-phenyl-N-(4-(5-(trifluoromethyl)-1,3,4-oxadiazol-2-yl)benzyl)pyrrolidine-1-carboxamide]
41 fold	6.61	COc1ccccc1CCN(Cc1ccc(-c2nnc(C(F)F)o2)cc1F)C(=O)N1CCOCC1 [Compound 21557, N-(4-(5-(difluoromethyl)-1,3,4-oxadiazol-2-yl)-2-fluorobenzyl)-N-(2-methoxyphenethyl) morpholine-4-carboxamide]

Compound	HDAC6 selectivity (fold)	pIC50
O=C(NCCN1CCN(Cc2ccccc2)CC1)N(Cc1ccc(-c2nnc(C(F)F)o2)cc1F)c1ccccc1 [Compound 22013, 3-(2-(4-Benzylpiperazin-1-yl)ethyl)-1-(4-(5-(difluoromethyl)-1,3,4-oxadiazol-2-yl)-2-fluorobenzyl)-1-phenylurea]	51 fold	6.71
